According to US20080139654A1, “ACETAMINOPHEN COMPOSITIONS HAVING MINIMIZED SIDE EFFECTS INCLUDING REDUCED HEPATOTOXICITY” (priority 2006, published 2008):

Experiments:
[1] = person, 4 grams/day; cited from earlier work
[2] = rat, oral
Description: The effect of prophylactic administration of n-acetylcysteine (NAC) on acetaminophen hepatotoxicity can be determined in the rat. In a double-blind placebo study, four groups of rats are given one of the following oral dosings: “NAC-free” (NF), low NAC (LN), medium NAC (MN), or high NAC(HN). Then rats in all groups are administered a toxic dose of acetaminophen (1 g/kg body weight) orally. After 24 hours, animal are euthanized and assessed for hepatotoxicity by the elevation of serum transaminases and by a necrotic score based on histological examination.
In the following protocol, all rats in the study are given the LD50 dose of acetaminophen (determined by the dosage of acetaminophen that causes 50% of the test subjects to expire after a predetermined period of time). […] The study is conducted in double-blind fashion; four groups of rats are given one of the following oral dosings: “NAC-free” (NF or placebo), low NAC (LN), medium NAC (MN), or high NAC(HN). Then rats in all groups are administered a LD50 dose of acetaminophen. All animals are euthanized 3 weeks later and hepatotoxicity assessed by the elevation of serum transaminases and by a necrotic score based on histological examination. Mortality in all groups will also be followed as the added criterion.

[3] = Mucomyst monograph; cited from earlier work
[4] = male, human, in vivo
Text: A construction worker* fell from a height of about 8 feet, severely breaking their right ankle and wrist. (*to promote privacy and simplify description of the invention, the patient and symptoms described here are a composite of data from typical patients). Orthopedic surgery repaired the injury, followed by prolonged and painful rehabilitation. A prescription for 60 Vicodin tablets (a composition comprising acetaminophen and hydrocodone) is given routinely during such post-surgical recovery periods. Typcially, the first day 4 to 8 vicodin tablets manage pain (often in combination with sedatives and the aftereffects of surgical anesthetics).
On the second day, at least 8 Vicodin® tablets are generally required to get the same analgesic effect (Vicodin is a well known trademark, which will also be referred to herein by “vicodin”). Subsequently, it is common that more than 10 vicodin tablets per day are taken, contrary to the doctor's instructions, yet less pain relief is noted with this higher dosage. At this rate, the patient must seek a refill in only a week; often doctors refilling such prescriptions give a stern advisory about taking too many pills and the dangers of Tylenol/acetaminophen. Subsequently, the patient sought prescriptions from other physicians and took 30 Vicodin tablets each day. […]

[5] = rats, oral methionine 200 mg/kg/day for 14 days; cited from earlier work

SMILES | hepatotoxicity at recommended dose [1] | LD50 dose of acetaminophen [2] | large overdose that saturates glucuronide and sulfate conjugation pathways, leading to hepatic cellular necrosis [3] [mg·kg] | destruction of liver [4] | angiotoxic effects [5] | concentrations of homocysteine in serum [5]
CC(=O)Nc1ccc(O)cc1 [acetaminophen, N-acetyl-p-aminophenol] | severe hepatotoxicity | 0.5 g/kg of Body weight | ≥ 150 | over 90% |  | 
CSCC[C@H](N)C(=O)O [methionine] |  |  |  |  | angiotoxic effects similar to atherosclerosis | increased
